Measurements from US20150132328A1 (priority 2011, published 2015).
Where two headings read alike, the source gives them in different places.

Tests used:
[1] = tested on: BMK-16myc cells
From the text: (§1) We used BMK-16myc cells which are baby mouse kidney cells immortalized with genes of 16 protein of the human papilloma virus (HPV) and the myc gene, which grow in mouse, are highly invasive and produce metastases rapidly. One million cells were implanted subcutaneously in the back of each mouse. […] Subsequently, the animals were sacrificed and the tumors under the back skin as well as thymus, spleen, liver and kidney were collected for histopathological examination.
(§2) The cellular viability that was quantified by the MTT method, indicates the mitochondrial activity.

[2] = tested on: LR.4 cells
From the text: as §2

[3] = tested on: BMK-16myc cells tumor; settings: for Metastases (animals with detected metastases/total number of animals): Tumor + IMMP
From the text: as §1

[4] = tested on: newborn rat thymocytes
From the text: It was used an octapeptide with similar weight for the elaboration of the complex, to which was just the proline (4) and Glycine (5) original amino acids were interchanged by proline (4) and Glycine (5) resulting as […].

[5] = tested on: rats with acute hepatitis induced with CCI4;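 note: endpoints determined in blood and liver tissue collected when the rats were sacrificed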
[6] = tested on: LR.4 lymphoma; settings: IMMP alone, no tumor
[7] = Acute Hepatitis + IMMP, time of CCI4 24
[8] = Acute Hepatitis + IMMP, time of CCI4 48
[9] = Acute Hepatitis + IMMP, time of CCI4 72

## Peptide LEDGPKFL + Zinc [IMMP]
[1]
  Difference with respect to control: not observed any difference with respect to control
[1]; IMMP (M) −8
  Cells proliferation (control percent, MTT): 102 ± 2.9%
[1]; IMMP (M) −9
  Cells proliferation (control percent, MTT): 104 ± 3.1%
[1]; IMMP (M) −10
  Cells proliferation (control percent, MTT): 102 ± 3.5%
[1]; IMMP (M) −11
  Cells proliferation (control percent, MTT): 103 ± 2.7%
[1]; IMMP (M) −12
  Cells proliferation (control percent, MTT): 102 ± 3.1%
[2]
  Increase of LR.4 cells: 20%
[2]; IMMP (M) −8
  Cells proliferation (control percent, MTT): 115 ± 5.4 %
[2]; IMMP (M) −9
  Cells proliferation (control percent, MTT): 118 ± 6.7 %
[2]; IMMP (M) −10
  Cells proliferation (control percent, MTT): 120 ± 8.5 %
[2]; IMMP (M) −11
  Cells proliferation (control percent, MTT): 110 ± 10.9 %
[2]; IMMP (M) −12
  Cells proliferation (control percent, MTT): 104 ± 4.3%
[3]; Kidney
  Metastases (animals with detected metastases/total number of animals): 0/5
[3]; Liver
  Metastases (animals with detected metastases/total number of animals): 3/5
[3]; Spleen, 200 ng Kg i.p., 10 doses
  Metastases (animals with detected metastases/total number of animals): 0/5
[3]; Thymus
  Metastases (animals with detected metastases/total number of animals): 0/5
[3]; mouse, in vivo
  Animals in which development of metastasis was reduced: 40%
[3]; tendency to smaller tumors
  Tumor size vs untreated group: not statistically significant
[3]; tumor + IMMP (100% untreated)
  Animals with metastases in liver: 60%
[4]; 10^-10 M, With-A
  Increase of thymocytes proliferation: 35%
[4]; 10^−6 (918 ng/mL), 24 hours
  Proliferation (% with respect to the control): 106.6 ± 3.0%
[4]; 10^−6 (918 ng/mL), Con A 50 pg/mL
  Proliferation (% with respect to the control): 126.6 ± 3.0%
[4]; 10^−7 (91.8 ng/mL), 24 hours
  Proliferation (% with respect to the control): 125.1 ± 2.6 %
[4]; 10^−7 (91.8 ng/mL), Con A 50 pg/mL
  Proliferation (% with respect to the control): 125.1 ± 2.6 %
[4]; 10^−7.5 (9.58 ng/mL), Con A 50 pg/mL
  Proliferation (% with respect to the control): 127.4 ± 3.0 %
[4]; 10^−8 (9.18 ng/mL), 24 hours
  Proliferation (% with respect to the control): 120.3 ± 2.7 %
[4]; 10^−8 (9.18 ng/mL), Con A 50 pg/mL
  Proliferation (% with respect to the control): 128.3 ± 2.7 %
[4]; 10^−9 (0.91 ng/mL), 24 hours
  Proliferation (% with respect to the control): 123.3 ± 3.4 %
[4]; 10^−9 (0.91 ng/mL), Con A 50 pg/mL
  Proliferation (% with respect to the control): 133.3 ± 3.4 %
[4]; 10^−10 (0.09 ng/mL), 24 hours
  Proliferation (% with respect to the control): 135.6 ± 3.1 %
[4]; 10^−10 (0.09 ng/mL), Con A 50 pg/mL
  Proliferation (% with respect to the control): 135.6 ± 3.1 %
[4]; 10^−11 (0.009 ng/mL), 24 hours
  Proliferation (% with respect to the control): 130.5 ± 1.4 %
[4]; 10^−11 (0.009 ng/mL), Con A 50 pg/mL
  Proliferation (% with respect to the control): 130.5 ± 1.4 %
[4]; 10^−12 (0.0009 ng/mL), Con A 50 pg/mL
  Proliferation (% with respect to the control): 120.3 ± 3.2 %
[5]; [7]
  Serum ALT: 351.0 ± 10.4 UI/L
  Serum AST: 493.6 ± 30.3 UI/L
  Serum PA (alkaline phosphatase): 1139.0 ± 86.8 UI/L
[5]; [8]
  Serum ALT: 275.54 ± 22.3 UI/L
  Serum AST: 377.0 ± 17.7 UI/L
  Serum PA (alkaline phosphatase): 1287.5 ± 83.6 UI/L
[5]; [9]
  Serum ALT: 233.0 ± 20.8 UI/L
  Serum AST: 230.2 ± 15.4 UI/L
  Serum PA (alkaline phosphatase): 1306.2 ± 90.7 UI/L
[5]; CCI4 + IMMP, 24 hours
  Hepatic glutathione: 13.3 ± 3.3 ng/mg of tissue
[5]; CCI4 + IMMP, 24 hours after CCI4
  Relative weight of the liver (organ weight / weight of the animal): 8.0 ± 0.9 ^ relative units
[5]; CCI4 + IMMP, 48 hours
  Hepatic glutathione: 14.2 ± 2.8 ng/mg of tissue
[5]; CCI4 + IMMP, 48 hours after CCI4
  Relative weight of the liver (organ weight / weight of the animal): 6.8 ± 0.7 relative units
[5]; CCI4 + IMMP, 72 hours
  Hepatic glutathione: 3.7 ± 1.6 ng/mg of tissue
[5]; CCI4 + IMMP, 72 hours after CCI4
  Relative weight of the liver (organ weight / weight of the animal): 5.7 ± 0.5 relative units
[5]; IMMP alone, no CCI4, 24 hours, 100 ng/kg i.p. x3
  Relative weight of the liver (organ weight / weight of the animal): 5.4 ± 0.5 relative units
[5]; IMMP alone, no CCI4, 48 hours, 100 ng/kg i.p. x3
  Relative weight of the liver (organ weight / weight of the animal): 5.0 ± 0.4 relative units
[5]; IMMP alone, no CCI4, 72 hours, 100 ng/kg i.p. x3
  Relative weight of the liver (organ weight / weight of the animal): 4.9 ± 0.2 relative units
[5]; IMMP alone, 24 hours
  Hepatic glutathione: 3.1 ± 1.0 ng/mg of tissue
[5]; IMMP alone, 48 hours
  Hepatic glutathione: 3.5 ± 0.3 ng/mg of tissue
[5]; IMMP alone, 72 hours
  Hepatic glutathione: 5.1 ± 0.6 ng/mg of tissue
[5]; IMMP alone, time 24
  Serum ALT: 64.0 ± 22.4 UI/L
  Serum AST: 72.4 ± 4.1 UI/L
  Serum PA (alkaline phosphatase): 525.0 ± 160 UI/L
[5]; IMMP alone, time 48
  Serum ALT: 73.1 ± 6.1 UI/L
  Serum AST: 72.5 ± 3.9 UI/L
  Serum PA (alkaline phosphatase): 804.5 ± 39.5 UI/L
[5]; IMMP alone, time 72
  Serum ALT: 71.4 ± 8.4 UI/L
  Serum AST: 71.6 ± 6.9 UI/L
  Serum PA (alkaline phosphatase): 604.0 ± 26.9 UI/L
[6]; week 0
  Body weight (control percent): 100 ± 2%
  Survival (percent of live animals): 100%
[6]; week 1
  Body weight (control percent): 100 ± 4%
  Survival (percent of live animals): 100%
[6]; week 2
  Body weight (control percent): 100 ± 5%
  Survival (percent of live animals): 100%
[6]; week 3
  Body weight (control percent): 100 ± 3%
  Survival (percent of live animals): 100%
